Counter-ions that a name gives are not always drawn. Like-named read-outs stand apart in the source and are kept apart here.
Molecular target: CDK2/CCNE1 (Homo sapiens, UniProt P24941)
Assay: CDK2 homogeneous time-resolved fluorescence (HTRF) assay
Type: biochemical
Conditions: 3 nM CDK2/CCNE1, 1 mM ATP, 50 nM ULight-eIF4E-binding protein 1 (Thr37/46) peptide, 60 min at 23° C.
Method: A CDK homogeneous time-resolved fluorescence (HTRF) assay was used to assess the potency of the compounds described herein.
To an untreated 384-well microtiter plate (ProxiPlate) was added 100 nL 100× test compound in DMSO and 5 μL 2×CDK enzyme in assay buffer (50 mM HEPES, 1 mM EGTA, 10 mM MgCl2, 0.01% Tween 20, 2 mM DTT). The plate was centrifuged at 800 RPM for 1 min then incubated for 20 min at 23° C. 2.5 μL per well of 4×ATP and 2.5 μL 4×ULight™-eIF4E-binding protein 1 (Thr37/46) Peptide) substrate were added to all wells. After addition, the plates were centrifuged at 800 RPM for 1 min. The plates were incubated at 23° C. for 60 min. 5 μL per well 3×EDTA solution were added to each well to stop the reaction. 2.5 μL 7×LANCE Ultra Europium-anti-phospho-eTF4E-binding protein 1 (Thr37/46 antibody) were added to each well and the plate was centrifuged for 1 min at 800 RPM. The plate was incubated for 60 min at 23° C. Fluorescence was read at 340 nm excitation and 665 nm emission on an EnVision 2105 fluorescence reader. The final concentrations of reagents in the activity assay were 3 nM CDK2/CCNE1, 1 mM ATP, 50 nM ULight™-eIF4E-binding protein 1 (Thr37/46) Peptide substrate, 1% DMSO, 10 mM EDTA, and 2 nM LANCE Ultra Europium-anti-phospho-eTF4E-binding protein 1 (Thr37/46).
Dose-response titrations were conducted by using an 11-point, three-fold serial dilution scheme typically starting at 1 μM. Signals were reported as fluorescence units at 665 nm or the ratio of fluorescence units at 665 nm/fluorescence units at 615 nm. Signals are referred to below as “Lance signals”.
Using this assay, the IC50 values of example compounds were determined.

[1] = column 25-150 nM, read-out: CDK2/CCNE IC50 25-150 nM
[2] = read-out: CDK2/CCNE IC50 <25 nM
[3] = read-out: CDK2/CCNE IC50 >150 nM

Row | IC50 [1] | IC50 [3] | SMILES | also measured
1 | 25 to 150 nM |  | OCc1ccc(Nc2ncc3cnn(CC4CCCCC4)c3n2)cc1 [Compound 24, (4-((1-(cyclohexylmethyl)-1H-pyrazolo[3,4-d]pyrimidin-6-yl)amino)phenyl)methanol] | 
2 | 25 to 150 nM |  | OCCc1ccc(Nc2ncc3cnn(CC4CCCCC4)c3n2)cc1 [Compound 22, 2-(4-((1-(cyclohexylmethyl)-1H-pyrazolo[3,4-d]pyrimidin-6-yl)amino)phenyl)ethan-1-ol] | 
3 |  |  | OCc1cccc(Nc2ncc3cnn(CC4CCCCC4)c3n2)c1 [Compound 20, (3-((1-(cyclohexylmethyl)-1H-pyrazolo[3,4-d]pyrimidin-6-yl)amino)phenyl)methanol] | IC50 [2]: < 25 nM
4 | 25 to 150 nM |  | O=Cc1ccc(Nc2ncc3cnn(CC4CCCCC4)c3n2)cc1 [Compound 25, 4-((1-(cyclohexylmethyl)-1H-pyrazolo[3,4-d]pyrimidin-6-yl)amino)benzaldehyde] | 
5 |  | > 150 nM | C#CC(=O)c1ccc(Nc2ncc3cnn(CC4CCCCC4)c3n2)cc1 [Compound 38, 1-(4-((1-(cyclohexylmethyl)-1H-pyrazolo[3,4-d]pyrimidin-6-yl)amino)phenyl)prop-2-yn-1-one] | 
6 |  |  | CN[C@H]1CC[C@@H](Cn2ncc3cnc(Nc4ccc(S(C)(=O)=O)cc4)nc32)CC1 [Compound 45, 1-(((1s,4s)-4-(methylamino)cyclohexyl)methyl)-N-(4-(methylsulfonyl)phenyl)-1H-pyrazolo[3,4-d]pyrimidin-6-amine] | IC50 [2]: < 25 nM
7 |  | > 150 nM | CS(=O)(=O)c1ccc(Nc2ncc3cnn(CC4CCC(N5CC(C#N)C5)CC4)c3n2)cc1 (single isomer, unassigned; stereoisomer a) [Compound 65, 1-(4-((6-((4-(methylsulfonyl)phenyl)amino)-1H-pyrazolo[3,4-d]pyrimidin-1-yl)methyl)cyclohexyl)azetidine-3-carbonitrile (stereoisomer A)] | 
8 |  |  | CS(=O)(=O)c1ccc(Nc2ncc3cnn(C[C@H]4CC[C@@H](CCl)CC4)c3n2)cc1 [Compound 49, 1-(((1S,4S)-4-(chloromethyl)cyclohexyl)methyl)-N-(4-(methylsulfonyl)phenyl)-1H-pyrazolo[3,4-d]pyrimidin-6-amine] | IC50 [2]: < 25 nM
9 | 25 to 150 nM |  | CS(=O)(=O)c1ccc(Nc2ncc3cnn(C[C@H]4CC[C@@H](C=O)CC4)c3n2)cc1 [Compound 27, (1s,4s)-4-((6-((4-(methylsulfonyl)phenyl)amino)-1H-pyrazolo[3,4-d]pyrimidin-1-yl)methyl)cyclohexane-1-carbaldehyde] | 
10 |  | > 150 nM | CN1CCN(CCn2ncc3cnc(Nc4ccc(S(C)(=O)=O)cc4)nc32)CC1 [Compound 15, 1-(2-(4-methylpiperazin-1-yl)ethyl)-N-(4-(methylsulfonyl)phenyl)-1H-pyrazolo[3,4-d]pyrimidin-6-amine] | 
11 |  | > 150 nM | CS(=O)(=O)c1ccc(Nc2ncc3cnn(CC4CCC(N5CC(O)C5)CC4)c3n2)cc1 (single isomer, unassigned; stereoisomer a) [Compound 64, 1-(4-((6-((4-(methylsulfonyl)phenyl)amino)-1H-pyrazolo[3,4-d]pyrimidin-1-yl)methyl)cyclohexyl)azetidin-3-ol (stereoisomer A)] | 
12 |  | > 150 nM | CS(=O)(=O)c1ccc(Nc2ncc3cnn(Cc4cccnc4)c3n2)cc1 [Compound 5, N-(4-(methylsulfonyl)phenyl)-1-(pyridine-3-ylmethyl)-1H-pyrazolo[3,4-d]pyrimidin-6-amine] | 
13 | 25 to 150 nM |  | C=CS(=O)(=O)c1ccc(Nc2ncc3cnn(CC4CCCCC4)c3n2)cc1 [Compound 8, 1-(cyclohexylmethyl)-N-(4-(vinylsulfonyl)phenyl)-1H-pyrazolo[3,4-d]pyrimidin-6-amine] | 
14 | 25 to 150 nM |  | CS(=O)(=O)c1ccc(Nc2ncc3cnn(C[C@H]4CC[C@@H](CO)CC4)c3n2)cc1 [Compound 17] | 
15 | 25 to 150 nM |  | CCN(C)[C@H]1CC[C@@H](Cn2ncc3cnc(Nc4ccc(S(C)(=O)=O)cc4)nc32)CC1 [Compound 75, 1-(((1s,4s)-4-(ethyl(methyl)amino)cyclohexyl)methyl)-N-(4-(methylsulfonyl)phenyl)-1H-pyrazolo[3,4-d]pyrimidin-6-amine] | 
16 | 25 to 150 nM |  | CS(=O)(=O)c1ccc(Nc2ncc3cnn(C4CCNCC4)c3n2)cc1 [Compound 14, N-(4-(methylsulfonyl)phenyl)-1-(piperidin-4-yl)-1H-pyrazolo[3,4-d]pyrimidin-6-amine] | 

Row | IC50 [1] | IC50 [3] | SMILES | also measured
17 |  | > 150 nM | CS(=O)(=O)c1ccc(Nc2ncc3cnn(C4CC(=O)C4)c3n2)cc1 [Compound 39, 3-(6-((4-(methylsulfonyl)phenyl)amino)-1H-pyrazolo[3,4-d]pyrimidin-1-yl)cyclobutan-1-one] | 
18 |  |  | OCCc1cccc(Nc2ncc3cnn(CC4CCCCC4)c3n2)c1 [Compound 35, 2-(3-((1-(cyclohexylmethyl)-1H-pyrazolo[3,4-d]pyrimidin-6-yl)amino)phenyl)ethan-1-ol] | IC50 [2]: < 25 nM
19 | 25 to 150 nM |  | CS(=O)(=O)c1ccc(Nc2ncc3cnn(C4CCC(=O)CC4)c3n2)cc1 [Compound 53, 4-(6-((4-(methylsulfonyl)phenyl)amino)-1H-pyrazolo[3,4-d]pyrimidin-1-yl)cyclohexan-1-one] | 
20 | 25 to 150 nM |  | CS(=O)(=O)c1ccc(Nc2ncc3cnn(Cc4cccc5[nH]ccc45)c3n2)cc1 [Compound 29, 1-((1H-indol-4-yl)methyl)-N-(4-(methylsulfonyl)phenyl)-1H-pyrazolo[3,4-d]pyrimidin-6-amine] | 
21 | 25 to 150 nM |  | CS(=O)(=O)c1ccc(Nc2ncc3cn(-c4ccc(C#N)cc4)nc3n2)cc1 (single isomer, unassigned) [Compound 83, 4-(6-((4-(methylsulfonyl)phenyl)amino)-2H-pyrazolo[3,4-d]pyrimidin-2-yl)benzonitrile] | 
22 |  | > 150 nM | CS(=O)(=O)c1ccc(Nc2ncc3cnn(CC4CCCCC4)c3n2)cc1C(F)(F)F [Compound 79, 1-(cyclohexylmethyl)-N-(4-(methylsulfonyl)-3-(trifluoromethyl)phenyl)-1H-pyrazolo[3,4-d]pyrimidin-6-amine] | 
23 |  | > 150 nM | CS(=O)(=O)c1ccc(Nc2ncc3cnn(CC4CCNCC4)c3n2)cc1 [Compound 7, N-(4-(methylsulfonyl)phenyl)-1-(piperidin-4-ylmethyl)-1H-pyrazolo[3,4-d]pyrimidin-6-amine hydrochloride] | 
24 |  | > 150 nM | CS(=O)(=O)c1ccc(Nc2ncc3cnn(CC4CCOCC4)c3n2)cc1 [Compound 63, N-(4-(methylsulfonyl)phenyl)-1-((tetrahydro-2H-pyran-4-yl)methyl)-1H-pyrazolo[3,4-d]pyrimidin-6-amine] | 
25 |  | > 150 nM | CC#CS(=O)(=O)c1ccc(Nc2ncc3cnn(CC4CCCCC4)c3n2)cc1 [Compound 43, 1-(cyclohexylmethyl)-N-(4-(prop-1-yn-1-ylsulfonyl)phenyl)-1H-pyrazolo[3,4-d]pyrimidin-6-amine] | 
26 |  | > 150 nM | CS(=O)(=O)c1ccc(Nc2ncc3cnn(C[C@H]4CC[C@@H](C(=O)O)CC4)c3n2)cc1 [Compound 16, (1s,4s)-4-((6-((4-(methylsulfonyl)phenyl)amino)-1H-pyrazolo[3,4-d]pyrimidin-1-yl)methyl)cyclohexane-1-carboxylic acid] | 
27 |  | > 150 nM | CS(=O)(=O)c1ccc(Nc2ncc3cnn(CC4CCC(N5CC[C@@H](O)C5)CC4)c3n2)cc1 (single isomer, unassigned; stereoisomer a) [Compound 73] | 
28 |  | > 150 nM | Cn1cc2cc(-n3ncc4cnc(Nc5ccc(S(C)(=O)=O)cc5)nc43)ccc2n1 [Compound 82, 1-(2-methyl-2H-indazol-5-yl)-N-(4-(methylsulfonyl)phenyl)-1H-pyrazolo[3,4-d]pyrimidin-6-amine] | 
29 | 25 to 150 nM |  | CS(=O)(=O)c1ccc(Nc2ncc3cnn(-c4ccc5cn[nH]c5c4)c3n2)cc1 [Compound 76, 1-(1H-indazol-6-yl)-N-(4-(methylsulfonyl)phenyl)-1H-pyrazolo[3,4-d]pyrimidin-6-amine] | 
30 | 25 to 150 nM |  | C=CS(=O)(=O)c1ccc(Nc2ncc3cnn(CC4CCCCC4)c3n2)cc1F [Compound 36, 1-(cyclohexylmethyl)-N-(3-fluoro-4-(vinylsulfonyl)phenyl)-1H-pyrazolo[3,4-d]pyrimidin-6-amine] | 
31 | 25 to 150 nM |  | CS(=O)(=O)c1ccc(Nc2ncc3cnn(C[C@H]4CC[C@H](CO)CC4)c3n2)cc1 [Compound 11, ((1r,4r)-4-((6-((4-(methylsulfonyl)phenyl)amino)-1H-pyrazolo[3,4-d]pyrimidin-1-yl)methyl)cyclohexyl)methanol] | 
